Values quoted from earlier work, collected in patent publication US5932763A, “Inhibition of matrix metalloproteases by 2-(ω-arolalkyl)-4-biaryl-4-oxobutyric acids” (Bayer Corporation, priority 1997, dated 1999).

Tests used:
[1] = Child, et al., J. Pharm. Sci., 66, 466, 1977
[2] = test system: human ovarian carcinoma xenografts; conditions: mouse, in vivo
human colon tumor = conditions: given intraperitoneally; orthotopic model in nude mice

Row | SMILES | activity of fenbufen analogs (described as inactive) [1] | survival of mice bearing human ovarian carcinoma xenografts [2] | human colon tumor growth and spread (human colon tumor)
1 | O=C(O)CC(C(=O)c1ccc(-c2ccccc2)cc1)c1ccccc1 (centres unmarked) [LXXVII] | inactive |  | 
2 | O=C(CC(C(=O)O)c1ccccc1)c1ccc(-c2ccccc2)cc1 (centres unmarked) [XLIX] | inactive |  | 
3 | CC(CC(=O)c1ccc(-c2ccccc2)cc1)C(=O)O (centres unmarked) [XLVII] | inactive |  | 
4 | CNC(=O)[C@H](Cc1ccccc1)NC(=O)[C@H](CC(C)C)[C@H](CSc1cccs1)C(=O)NO [batimastat] |  | prolongs the survival | inhibits human colon tumor growth and spread
